Read-outs that look alike come from different tables or passages of the source.
Assays:
[1] = tested on: prostate cancer cell lines (e.g. DU145/TXR); assay: Cell based assay, cell viability (CellTiter-Glo), prostate cancer cell lines; settings: Homo sapiens, 72 hours treatment, final concentration 0 to 2 μM
Procedure, shortened: (§1)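 Cells were trypsinized, seeded, and left 24 h before compound was added at 0 to 2 μM final. After a further 72 h of culture, viability was read by ATP-based luminescence.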

renal cancer cell lines = assay: Cell based assay, cell viability (CellTiter-Glo), renal cancer cell lines; settings: Homo sapiens; ACHN cells
Procedure, shortened: as §1

[2] = CWR22 cells, read-out: IC50, prostate cancer cell line CWR22
[3] = DU-145, DU145/TXR cells, read-out: IC50, prostate cancer cell line DU145/TXR
[4] = DU-145, DU145 cells, read-out: IC50, prostate cancer cell line DU145
[5] = LNcap cells, read-out: IC50, prostate cancer cell line LNcap

Row | SMILES | IC50 [1, 2] [µM] | IC50 [1, 3] [µM] | IC50 [1, 4] [µM] | IC50 [1, 5] [µM] | IC50 (renal cancer cell lines) [µM] | IC50 ([1]; PC-3 cells, read-out: IC50, prostate cancer cell line PC-3) [µM]
1 | CC(=O)c1c([S+]([O-])Cc2ccc(NS(C)(=O)=O)cc2)[nH]c2c(Br)ccc(Cl)c2c1=O (centres unmarked) [Compound 103, N-(4-(((3-acetyl-8-bromo-5-chloro-4-oxo-1,4-dihydroquinolin-2-yl)sulfinyl)methyl)phenyl)methane-sulfonamide] | > 2 | > 2 | > 2 | > 2 | > 2 | –
2 | CC(=O)c1c([S+]([O-])Cc2ccc(Cl)nc2)[nH]c2c(Br)ccc(Cl)c2c1=O (centres unmarked) [Compound 104, 3-acetyl-8-bromo-5-chloro-2-(((6-chloropyridin-3-yl)methyl)sulfinyl)quinolin-4(1H)-one] | 1.55 | 1.23 | 1.64 | > 2 | 1.2 | > 2
3 | COCCNc1ccc(C[S+]([O-])c2[nH]c3c(Br)ccc(Cl)c3c(=O)c2C(C)=O)cn1 (centres unmarked) [Compound 105, 3-acetyl-8-bromo-5-chloro-2-(((6-((2-methoxyethyl)amino)pyridin-3-yl)methyl)sulfinyl)quinolin-4(1H)-one] | > 2 | > 2 | > 2 | > 2 | > 2 | –
4 | CC(=O)c1c([S+]([O-])Cc2nonc2C)[nH]c2c(Br)ccc(Cl)c2c1=O (centres unmarked) [Compound 106, 3-acetyl-8-bromo-5-chloro-2-(((4-methyl-1,2,5-oxadiazol-3-yl)methyl)sulfinyl)quinolin-4(1H)-one] | > 2 | > 2 | > 2 | > 2 | > 2 | –
5 | CC(=O)c1c([S+]([O-])Cc2cnc3[nH]ccc3c2)[nH]c2c(Br)ccc(Cl)c2c1=O (centres unmarked) [Compound 107, 2-(((1H-pyrrolo[2,3-b]pyridin-5-yl)methyl)sulfinyl)-3-acetyl-8-bromo-5-chloroquinolin-4(1H)-one] | > 2 | > 2 | > 2 | > 2 | > 2 | –

From patent US11464770B2, “Anticancer pharmaceutical composition” (NATIONAL CANCER CENTER, priority 2016, dated 2022)
